Source: patent US20250241996A1, “COMBINATORIAL, AND ROTATIONAL COMBINATORIAL THERAPIES” (Starrock Pharma Inc., priority 2022, published 2025)
Values joined by “and” are separate entries in the source; they are usually repeats but may differ in a detail not shown here. Identical values can stand only once. Like-named read-outs stand apart in the source and are kept apart here.

Columns and labels:
[1] = Side effects and tolerability during the combinatorial weight loss regimen (Example 2)
Method: Subjects were seen once weekly for the first 4 weeks, and then once every two weeks, for six visits, for a total of 10 visits over 16 weeks. Vital signs and side effects were assessed at each visit.
Subjects were administered or self-administered the medications in the protocol by the appropriate route (i.e., subcutaneous injection or oral tablet/capsule) for […]. Subjects initially were administered a combination of: 1) a GLP-1 agonist (sold under trademarks Trulicity®, B-cise®, Ozempic®, and Victoza®), 2) Phentermine, 3) Liothyronine, 4) topiramate (sold under the trademark Topamax® carbonic anhydrase inhibitor), and 5) Sermorelin. The starting dosages are listed below in Table 17. The dosages were adjusted throughout the treatment period based on the subject response (i.e., weight loss), tolerability, volume of distribution, subject weight, and at the discretion of the treating physician. For example, the dosage of the GLP-1 agonists Trulicity® and Ozempic® was adjusted depending on the response to the medications. The dosage of the Bydureon BCcise® GLP-1 agonist was not adjusted since it is only produced in a 2 mg injectable dose. Phentermine was increased depending on subject response, to, for example, one 37.5 mg tablet in the morning and one-half tablet ([…]) at 2 p.m. […] If no progression was noted on the initial medications listed above, then the following medications were added to the protocol: Acarbose, Januvia® dipeptidyl peptidase-4 (DPP-4) inhibitor, Invokana® sodium-glucose co-transporter 2 (SGLT2) inhibitor, and Farxiga® (dapagliflozin) in the dosages listed in Table 17, below. For example, if weight loss progress was slow and a subject was consuming large amounts of carbohydrate-rich foods, the alpha-glucosidase inhibitor, Acarbose, was added to the regimen. […] This was added in addition to medications i-iv and ix, below. The regimen provided a minimum of four medications, and more medications were added and/or the dosages were modified as required in subsequent visits.
In other examples, the regimen began with administration of medications i-iv and ix and other medications were added; additional medications were administered at week 2 or week 7, for example, if the subject was not responding and needed an extra pharmacological ‘push.’
As noted above, the medication dosages were adjusted throughout the treatment period as needed, and as agreed to between the treating physician and the subject. […] For larger subjects (i.e., starting weight over 300 pounds) who were losing less than 6 pounds per week, medication dosages were increased or additional medications were added to the regimen. The hierarchy of decision making included 1) increase the dosage of the medications to the maximum allowable dosage or to the level of tolerability of the medication; and then 2) add a fifth or sixth medication, as needed to increase weight loss.

[2] = cited from earlier work
[3] = cited from earlier work; remark: listed apart in the source
[4] = cited from earlier work; remark: listed apart in the source
[5] = cited from earlier work; remark: listed apart in the source
[6] = after 36 weeks, cited from earlier work

C[C@H]1O[C@H](O[C@H]2[C@H](O)[C@@H](O)[C@@H](O[C@H]3[C@H](O)[C@@H](O)C(O)O[C@@H]3CO)O[C@@H]2CO)[C@H](O)[C@@H](O)[C@@H]1N[C@H]1C=C(CO)[C@@H](O)[C@H](O)[C@H]1O (some centres unmarked) [Acarbose]
Side effect(s) ([1]; subject 4, dosages of Table 24): Mild

Fc1ccccc1Nc1nc2nonc2nc1Nc1ccccc1F [BAM15, (2-fluorophenyl){6-[(2-fluorophenyl)amino](1,2,5-oxadiazolo [3,4e]pyrazin-5-yl)}amine]
diet-induced obesity and insulin resistance ([2]; orally administered, mice): reverses diet-induced obesity and insulin resistance in mice

CC(NC(C)(C)C)C(=O)c1cccc(Cl)c1 (centres unmarked) [Bupropion]
Side effect(s) ([1]; in vivo): None

O=[N+]([O-])c1ccc(O)c([N+](=O)[O-])c1 [DNP, 2,4-dinitrophenol]
toxicity ([3]; tested clinically): limited utility owing to toxicity

CCN(CC)C(C)C(=O)c1ccccc1 (centres unmarked) [Diethylproprion]
Side effect(s) ([1]; subject 2, dosages of Table 20): None

C[C@H]1CNCCc2ccc(Cl)cc21 [Locasarin]
Weight loss ([4]; Duration 56 weeks): 5.8%

O=C1CC[C@@]2(O)[C@H]3Cc4ccc(O)c5c4[C@@]2(CCN3CC2CC2)[C@H]1O5 [Naltrexone]
weight loss in monotherapy ([3]; human, in vivo): does not cause weight loss in monotherapy

CCCCCCCCCCC[C@@H](C[C@@H]1OC(=O)[C@H]1CCCCCC)OC(=O)[C@H](CC(C)C)NC=O [Orlistat]
placebo-normalized weight loss ([3]; human, in vivo): ~2.5%
>%5 (percent of subjects who lost greater than 5%) ([4]; Duration 56 weeks): 48%
>%10 (percent of subjects who lost greater than 10%) ([4]; Duration 56 weeks): 17.9%
Weight loss ([4]; Duration 56 weeks): 6.2% and 4% and 8.5%
participants with 5% and more weight loss ([4]; Duration 56 weeks): 48%
participants with 10% and more weight loss ([4]; Duration 56 weeks): 17.9%

C[C@H]1[C@H](c2ccccc2)OCCN1C [Phendimetrazine]
Side effect(s) ([1]; subject 5, dosages of Table 26): None

CC(C)(N)Cc1ccccc1 [Phentermine]
>%5 (percent of subjects who lost greater than 5%) ([4]; Duration 12 weeks): 95%
>%10 (percent of subjects who lost greater than 10%) ([4]; Duration 12 weeks): 62.5%
Weight loss ([4]; Duration 12 weeks): 8% and 7%
participants with 5% and more weight loss ([4]; Duration 12 weeks): 95%
participants with 10% and more weight loss ([4]; Duration 12 weeks): 62.5%
Weight loss ([4]; Duration 12 weeks, listed as phentermine): 8% and 7%
Weight loss ([4]; Duration 20 weeks): 9%
Weight loss ([4]; Duration 28 weeks): 6%
Side effect(s) ([1]; subject 1, dosages of Table 18): Dry mouth
Side effect(s) ([1]; subject 2, dosages of Table 20): Dry mouth
Side effect(s) ([1]; subject 3, dosages of Table 22): None and Dry mouth
Side effect(s) ([1]; subject 4, dosages of Table 24): None
Side effect(s) ([1]; subject 5, dosages of Table 26): None

Cc1c(C(=O)NN2CCCCC2)nn(-c2ccc(Cl)cc2Cl)c1-c1ccc(Cl)cc1 [Rimonabant]
adverse psychiatric effects ([3]; human, in vivo): discontinued in 2009 due to serious adverse psychiatric effects
placebo-subtracted weight loss ([3]; human, in vivo): 2.6 to 6.3 kg

CCOC[C@@H]1[C@@H](c2ccc(Cl)c(Cl)c2)C[C@@H]2CC[C@H]1N2C [Tesofensine]
decrease of body weight ([3]; phase II study, dose-dependent): 4.4-10.4%

CC1(C)O[C@@H]2[C@@H](CO[C@@]3(COS(N)(=O)=O)OC(C)(C)O[C@@H]23)O1 [Topiramate]
tolerability within the regimen ([1]; in vivo): the least tolerated, and was discontinued in some cases

CC[C@H](C)[C@H](NC(=O)[C@H](Cc1ccccc1)NC(=O)[C@H](CCC(=O)O)NC(=O)[C@H](CCCCNC(=O)COCCOCCNC(=O)COCCOCCNC(=O)CC[C@H](NC(=O)CCCCCCCCCCCCCCCCC(=O)O)C(=O)O)NC(=O)[C@H](C)NC(=O)[C@H](C)NC(=O)[C@H](CCC(N)=O)NC(=O)CNC(=O)[C@H](CCC(=O)O)NC(=O)[C@H](CC(C)C)NC(=O)[C@H](Cc1ccc(O)cc1)NC(=O)[C@H](CO)NC(=O)[C@H](CO)NC(=O)[C@@H](NC(=O)[C@H](CC(=O)O)NC(=O)[C@H](CO)NC(=O)[C@@H](NC(=O)[C@H](Cc1ccccc1)NC(=O)[C@@H](NC(=O)CNC(=O)[C@H](CCC(=O)O)NC(=O)C(C)(C)NC(=O)[C@@H](N)Cc1cnc[nH]1)[C@@H](C)O)[C@@H](C)O)C(C)C)C(=O)N[C@@H](C)C(=O)N[C@@H](Cc1c[nH]c2ccccc12)C(=O)N[C@@H](CC(C)C)C(=O)N[C@H](C(=O)N[C@@H](CCCNC(=N)N)C(=O)NCC(=O)N[C@@H](CCCNC(=N)N)C(=O)NCC(=O)O)C(C)C [semaglutide]
Side effect(s) ([1]; in vivo): constipation

CC[C@H](C)[C@H](NC(=O)[C@H](C)NC(=O)[C@H](CC(=O)O)NC(=O)[C@H](C)NC(=O)[C@@H](N)Cc1ccc(O)cc1)C(=O)N[C@@H](Cc1ccccc1)C(=O)N[C@H](C(=O)N[C@@H](CC(N)=O)C(=O)N[C@@H](CO)C(=O)N[C@@H](Cc1ccc(O)cc1)C(=O)N[C@@H](CCCNC(=N)N)C(=O)N[C@@H](CCCCN)C(=O)N[C@H](C(=O)N[C@@H](CC(C)C)C(=O)NCC(=O)N[C@@H](CCC(N)=O)C(=O)N[C@@H](CC(C)C)C(=O)N[C@@H](CO)C(=O)N[C@@H](C)C(=O)N[C@@H](CCCNC(=N)N)C(=O)N[C@@H](CCCCN)C(=O)N[C@@H](CC(C)C)C(=O)N[C@@H](CC(C)C)C(=O)N[C@@H](CCC(N)=O)C(=O)N[C@@H](CC(=O)O)C(=O)N[C@H](C(=O)N[C@@H](CCSC)C(=O)N[C@@H](CO)C(=O)N[C@@H](CCCNC(=N)N)C(N)=O)[C@@H](C)CC)C(C)C)[C@@H](C)O [sermorelin]
Side effect(s) ([1]; in vivo): None

Novo Nordisk Wegovy ™ semaglutide weight loss medication
12 weeks % weight change ([5]; Wegovy Study 1, baseline mean body weight 105.4 kg): −6%
36 weeks % weight change ([5]; Wegovy Study 1): −12%
12 weeks % weight change ([5]; Wegovy Study 2, baseline mean body weight 99.9 kg): −4.5%
36 weeks % weight change ([5]; Wegovy Study 2): −9%
12 weeks % weight change ([5]; Wegovy Study 3, baseline mean body weight 106.9 kg): −7%
36 weeks % weight change ([5]; Wegovy Study 3): −13%
12 weeks % weight change ([5]; Wegovy Study 4, baseline mean body weight 107.2 kg): −5.5%
36 weeks % weight change ([5]; Wegovy Study 4): −12%

dulaglutide
Side effect(s) ([1]; in vivo): constipation
average weight lost ([6]; 1.5 mg once weekly with ≥1500 mg/day metformin): 6.6 pounds
average weight lost ([6]; 3.0 mg once weekly with ≥1500 mg/day metformin): 8.4 pounds
average weight lost ([6]; 4.5 mg once weekly with ≥1500 mg/day metformin): 1.1 pounds

leptin: 167 amino acid hormone (SEQ ID NO:3)
lowering of body weight by supplementation ([3]; obese individuals): has not been shown to be effective to lower body weight in obese individuals

B1: recombinant GDF15: Macrophage inhibitory cytokine 1 (SEQ ID NO:33) (protein, listed as Homo sapiens)
chain: MPGQELRTVNGSQMLLVLLVLSWLPHGGALSLAEASRASFPGPSELHSEDSRFRELRKRYEDLLTRLRANQSWEDSNTDLVPAPAVRILTPEVRLGSGGHLHLRISRAALPEGLPEASRLHRALFRLSPTASRSWDVTRPLRRQLSLARPQAPALHLRLSPPPSQSDQLLAESSSARPQLELHLRPQAARGRRRARARNGDHCPLGPGRCCRLHTVRASLEDLGWADWVLSPREVQVTMCIGACPSQFRAANMHAQIKTSLHRLKPDTVPAPCCVPASYNPMVLIQKTDTGVSLQTYDDLLAKDCHCI
modifications: Macrophage inhibitory cytokine 1 (MIC1 or GDF15)
body weight ([2]; exogenous administration, diet-induced obese mice and non-human primates): decreases body weight in diet-induced obese mice and non-human primates
